Measured values reported in PubChem BioAssay AID1963968 (Molecular Pharmacology Branch, DTP, NCI, 2024).
Values joined by “and” are separate entries in the source; they are usually repeats but may differ in a detail not shown here. Identical values can stand only once.

Test system: 945468-187-T-J3-PDC spheroids with HUVEC/MSC, viability
Experiment: Anticancer human tumor 945468-187-T-J3-PDC patient-derived rectal carcinoma cell line growth inhibition [PI3K]
Details: for viability, T/C: stronger effect = lower value
How it was run: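 Combination activity was assessed by viability in multicellular tumor spheroids carrying HUVEC and MSC components. Agents were tested with PI3K inhibitors from a Cmax-based top dose (or 10 microM) downward in half-log increments.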

[1] = curve of first compound, second compound 0.00316 µM
[2] = curve of first compound, second compound 0.01 µM
[3] = curve of first compound, second compound 0.0316 µM
[4] = curve of first compound, second compound 0.1 µM
[5] = curve of first compound, second compound 0.316 µM
[6] = curve of first compound, second compound 1 µM
[7] = second compound 0.0316 µM, first compound 0.0316 µM
[8] = second compound 0.0316 µM, first compound 0.1 µM
[9] = second compound 0.0316 µM, first compound 0.316 µM
[10] = second compound 0.0316 µM, first compound 1 µM
[11] = second compound 0.1 µM, first compound 0.0316 µM
[12] = second compound 0.1 µM, first compound 0.1 µM
[13] = second compound 0.1 µM, first compound 0.316 µM
[14] = second compound 0.1 µM, first compound 1 µM
[15] = second compound 0.316 µM, first compound 0.0316 µM
[16] = second compound 0.316 µM, first compound 0.1 µM
[17] = second compound 0.316 µM, first compound 0.316 µM
[18] = second compound 0.316 µM, first compound 1 µM
[19] = second compound 1 µM, first compound 0.0316 µM
[20] = second compound 1 µM, first compound 0.1 µM
[21] = second compound 1 µM, first compound 0.316 µM
[22] = second compound 1 µM, first compound 1 µM
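Further: spheroids exposed to agents for 7 days before viability read.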
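Wherever viability, T/C is given: 100% = DMSO vehicle control viability.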

Cn1nccc1Nc1nccc(-c2ccn(C(CO)c3ccc(Cl)c(F)c3)c(=O)c2)n1 (stereo unspecified)
viability, T/C (compound 0.0316 µM): 95.4% [middle of 4 runs] | viability, T/C (compound 0.1 µM): 104% [middle of 4 runs] | viability, T/C (compound 1 µM): 111% [middle of 4 runs] | viability, T/C (compound 3.16 µM): 136% (2×) and 113% and 127% | IC50 (curve of compound): > 10 µM

CNC(=O)c1ccc(N2C(=S)N(c3ccc(C#N)c(C(F)(F)F)c3)C(=O)C2(C)C)cc1F + COc1c(OCCCN2CCOCC2)ccc2c3n(c(=NC(=O)c4cnc(N)nc4)nc12)CCN3
IC50 [1]: > 10 µM | IC50 [2]: > 10 µM | IC50 [3]: > 10 µM | IC50 [4]: < 0.0316 µM | IC50 [5]: < 0.0316 µM | IC50 [6]: < 0.0316 µM | viability, T/C (second compound 0.00316 µM, first compound 0.0316 µM): 102% | viability, T/C (second compound 0.00316 µM, first compound 0.1 µM): 94.3% | viability, T/C (second compound 0.00316 µM, first compound 0.316 µM): 98.5% | viability, T/C (second compound 0.00316 µM, first compound 1 µM): 84.6% | viability, T/C (second compound 0.00316 µM, first compound 3.16 µM): 98.2% | viability, T/C (second compound 0.00316 µM, first compound 10 µM): 99.9% | viability, T/C (second compound 0.01 µM, first compound 0.0316 µM): 98.9% | viability, T/C (second compound 0.01 µM, first compound 0.1 µM): 97.1% | viability, T/C (second compound 0.01 µM, first compound 0.316 µM): 90% | viability, T/C (second compound 0.01 µM, first compound 1 µM): 95.2% | viability, T/C (second compound 0.01 µM, first compound 3.16 µM): 100% | viability, T/C (second compound 0.01 µM, first compound 10 µM): 117% | viability, T/C [7]: 101% | viability, T/C [8]: 103% | viability, T/C [9]: 96.7% | viability, T/C [10]: 104% | viability, T/C (second compound 0.0316 µM, first compound 3.16 µM): 111% | viability, T/C (second compound 0.0316 µM, first compound 10 µM): 98% | viability, T/C [11]: 44.1% | viability, T/C [12]: 39.7% | viability, T/C [13]: 46.2% | viability, T/C [14]: 53.9% | viability, T/C (second compound 0.1 µM, first compound 3.16 µM): 64.6% | viability, T/C (second compound 0.1 µM, first compound 10 µM): 51.5% | viability, T/C [15]: 25.1% | viability, T/C [16]: 26.6% | viability, T/C [17]: 22.8% | viability, T/C [18]: 23.4% | viability, T/C (second compound 0.316 µM, first compound 3.16 µM): 28.4% | viability, T/C (second compound 0.316 µM, first compound 10 µM): 28.5% | viability, T/C [19]: 17.5% | viability, T/C [20]: 21.3% | viability, T/C [21]: 14.4% | viability, T/C [22]: 21.6% | viability, T/C (second compound 1 µM, first compound 3.16 µM): 17.8% | viability, T/C (second compound 1 µM, first compound 10 µM): 16.9%

Cn1cnc2c(F)c(Nc3ccc(Br)cc3Cl)c(C(=O)NOCCO)cc21 + CC(Nc1ccc2c(c1)OCCn1cc(N3C(=O)OCC3C(F)F)nc1-2)C(N)=O
IC50 [1]: > 3 µM | IC50 [2]: > 3 µM | IC50 [3]: > 3 µM | IC50 [4]: 0.834 µM | IC50 [5]: 0.118 µM | IC50 [6]: 0.032 µM | viability, T/C (second compound 0.00316 µM, first compound 0.00949 µM): 105% | viability, T/C (second compound 0.00316 µM, first compound 0.03 µM): 100% | viability, T/C (second compound 0.00316 µM, first compound 0.0949 µM): 117% | viability, T/C (second compound 0.00316 µM, first compound 0.3 µM): 116% | viability, T/C (second compound 0.00316 µM, first compound 0.949 µM): 114% | viability, T/C (second compound 0.00316 µM, first compound 3 µM): 95.3% | viability, T/C (second compound 0.01 µM, first compound 0.00949 µM): 103% | viability, T/C (second compound 0.01 µM, first compound 0.03 µM): 105% | viability, T/C (second compound 0.01 µM, first compound 0.0949 µM): 114% | viability, T/C (second compound 0.01 µM, first compound 0.3 µM): 111% | viability, T/C (second compound 0.01 µM, first compound 0.949 µM): 126% | viability, T/C (second compound 0.01 µM, first compound 3 µM): 91.2% | viability, T/C (second compound 0.0316 µM, first compound 0.00949 µM): 107% | viability, T/C (second compound 0.0316 µM, first compound 0.03 µM): 119% | viability, T/C (second compound 0.0316 µM, first compound 0.0949 µM): 120% | viability, T/C (second compound 0.0316 µM, first compound 0.3 µM): 100% | viability, T/C (second compound 0.0316 µM, first compound 0.949 µM): 97.1% | viability, T/C (second compound 0.0316 µM, first compound 3 µM): 62.7% | viability, T/C (second compound 0.1 µM, first compound 0.00949 µM): 114% | viability, T/C (second compound 0.1 µM, first compound 0.03 µM): 116% | viability, T/C (second compound 0.1 µM, first compound 0.0949 µM): 104% | viability, T/C (second compound 0.1 µM, first compound 0.3 µM): 73.3% | viability, T/C (second compound 0.1 µM, first compound 0.949 µM): 49.5% | viability, T/C (second compound 0.1 µM, first compound 3 µM): 33% | viability, T/C (second compound 0.316 µM, first compound 0.00949 µM): 85.2% | viability, T/C (second compound 0.316 µM, first compound 0.03 µM): 73.1% | viability, T/C (second compound 0.316 µM, first compound 0.0949 µM): 52.7% | viability, T/C (second compound 0.316 µM, first compound 0.3 µM): 35.4% | viability, T/C (second compound 0.316 µM, first compound 0.949 µM): 26% | viability, T/C (second compound 0.316 µM, first compound 3 µM): 19.2% | viability, T/C (second compound 1 µM, first compound 0.00949 µM): 60.4% | viability, T/C (second compound 1 µM, first compound 0.03 µM): 50.7% | viability, T/C (second compound 1 µM, first compound 0.0949 µM): 36.9% | viability, T/C (second compound 1 µM, first compound 0.3 µM): 23.3% | viability, T/C (second compound 1 µM, first compound 0.949 µM): 15.9% | viability, T/C (second compound 1 µM, first compound 3 µM): 11.7%

CCN1CCN(Cc2ccc(Nc3ncc(F)c(-c4cc(F)c5nc(C)n(C(C)C)c5c4)n3)nc2)CC1 + Cc1nc(NC(=O)N2CCCC2C(N)=O)sc1-c1ccnc(C(C)(C)C(F)(F)F)c1
IC50 [3]: > 1 µM | IC50 [4]: > 1 µM | IC50 [5]: > 1 µM | IC50 [6]: 0.735 µM | IC50 (curve of first compound, second compound 3.16 µM): 0.299 µM | IC50 (curve of first compound, second compound 10 µM): 0.0355 µM | viability, T/C (second compound 0.0316 µM, first compound 0.00316 µM): 83.5% | viability, T/C (second compound 0.0316 µM, first compound 0.01 µM): 103% | viability, T/C [7]: 95.6% | viability, T/C [8]: 105% | viability, T/C [9]: 115% | viability, T/C [10]: 105% | viability, T/C (second compound 0.1 µM, first compound 0.00316 µM): 87.8% | viability, T/C (second compound 0.1 µM, first compound 0.01 µM): 97.9% | viability, T/C [11]: 107% | viability, T/C [12]: 103% | viability, T/C [13]: 121% | viability, T/C [14]: 102% | viability, T/C (second compound 0.316 µM, first compound 0.00316 µM): 97% | viability, T/C (second compound 0.316 µM, first compound 0.01 µM): 96.2% | viability, T/C [15]: 95.6% | viability, T/C [16]: 107% | viability, T/C [17]: 113% | viability, T/C [18]: 53.5% | viability, T/C (second compound 1 µM, first compound 0.00316 µM): 102% | viability, T/C (second compound 1 µM, first compound 0.01 µM): 103% | viability, T/C [19]: 101% | viability, T/C [20]: 106% | viability, T/C [21]: 90.3% | viability, T/C [22]: 35.2% | viability, T/C (second compound 3.16 µM, first compound 0.00316 µM): 107% | viability, T/C (second compound 3.16 µM, first compound 0.01 µM): 97.5% | viability, T/C (second compound 3.16 µM, first compound 0.0316 µM): 88.9% | viability, T/C (second compound 3.16 µM, first compound 0.1 µM): 99.3% | viability, T/C (second compound 3.16 µM, first compound 0.316 µM): 47.5% | viability, T/C (second compound 3.16 µM, first compound 1 µM): 26.9% | viability, T/C (second compound 10 µM, first compound 0.00316 µM): 65.6% | viability, T/C (second compound 10 µM, first compound 0.01 µM): 59.4% | viability, T/C (second compound 10 µM, first compound 0.0316 µM): 45.6% | viability, T/C (second compound 10 µM, first compound 0.1 µM): 45.8% | viability, T/C (second compound 10 µM, first compound 0.316 µM): 35.2% | viability, T/C (second compound 10 µM, first compound 1 µM): 23.7%
